Assay results taken from patent US10932483B2, “Sweetness enhancer” (PepsiCo, Inc., priority 2014, dated 2021).
Values joined by “and” are separate entries in the source; they are usually repeats but may differ in a detail not shown here. Equal entries are not always repeated. “Also recorded” adds a separate entry of the source.

Key:
human sense of taste [1] = test: Taste of phloroglucinol in water, alone or with salt; type: in vivo
Description: (§1) General Tasting Procedure: Unless otherwise specified in a given example, tastings were performed by a single taster using a “sip, spit, rinse” protocol. Under this protocol, the taster: • a. sipped up to about 10 ml of a given solution and assessed the sweetness, mouthfeel, and other characteristics of the solution during its residence in the taster's mouth; • b. spit out the solution after making the assessment; and • c. rinsed with water to cleanse the palate before testing any further samples.
To analyze this effect, an experiment was conducted to determine whether NaCl could be used as a supplemental sweetness enhancer.

human sense of taste [2] = test: Taste of sugar solutions with phloroglucinol and supplemental sweetness enhancers; type: in vivo; conditions: Example 22: 500 ppm phloroglucinol, 350 ppm rebaudioside C, 8% sugar
Description: as §1
Three tasters conducted taste experiments on the blends identified in the table, below.
Experiments were conducted utilizing phloroglucinol and rebaudioside C in a sugar solutions.
Two testers tasted each of solutions 1 through 5, in the table above.
Taste experiments were conducted with sugar solutions comprising phloroglucinol and one of rebaudioside B, rebaudioside M, and trilobatin as set forth in the table, below.
Two testers tasted these solutions.
Five aqueous solutions comprising sugar, phloroglucinol, and/or rubusoside were prepared as set forth in the table below and tested for sweetness.

[3] = Physicochemical properties of phloroglucinol; conditions: concentrations described; higher temperatures; sunlight
human sense of taste [4] = test: Taste of beverages (cola, SIERRA MIST, diet cola) containing phloroglucinol; type: in vivo
Description: Sources: A bottle of cola concentrate (HFCS-55) and a bottle of concentrate having ⅓ less HFCS (the “Brix-reduced syrup”) were obtained. […] Both concentrates were then used to make cola beverages (volume 4.5 carbonated water) in a 1 plus 5 throw manner.
Experiments were conducted on a sugar reduced cola beverage. A control bottle of cola concentrate (HFCS-55) and a bottle of Brix reduced variant concentrate having 35% less HFCS than the control were used. […] Both concentrates were then used to make cola beverages with volume 4.5 carbonated water in a 1 plus 5 throw manner.
Taste experiments were conducted for a diet cola beverage. Unsweetened diet cola concentrate was used. Control syrup 1 was made by adding 3000 ppm aspartame to the concentrate. Control syrup 2 was made by adding 2400 ppm rebaudioside M to the diet cola concentrate. […] All concentrates were then used to make diet cola beverages with volume 4.5 carbonated water in a 1 plus 5 throw manner.
The finished control diet cola beverage 1 contained 500 ppm aspartame.
A total of 5 diet cola tasters evaluated the four beverages.

human sense of taste [5] = test: Taste of sugar solutions with phloroglucinol and salt against sugar controls; type: in vivo; conditions: for Taste: body compared with 8% sugar control: 5% sugar in water
human sense of taste [6] = test: Lab taste test (sip, spit, rinse) of sweetener solutions containing phloroglucinol against reference sweetener solutions; type: in vivo
Description: as §1
Reference solutions: 5%, 7%, and 9% aqueous sucrose (sugar) solutions were prepared.
Reference solutions: 5%, 7%, and 9% aqueous sucrose solutions were prepared as in Example 1.
Reference solutions: 5%, 7%, 8% and 9% sucrose solutions in aqueous pH 3.0 citrate buffer solutions (citric acid 2.26 g plus trisodium citrate 0.32 g in 2 L water) were prepared.
Reference solutions: 2.5%, 3.5%, and 4% aqueous fructose (Sigma) solutions were prepared.
Reference solutions: 5%, 7%, 8% and 9% aqueous glucose (Sigma) solutions were prepared.
Reference solutions: 5%, 6%, 7%, 8% and 9% aqueous sucrose solutions were prepared. […] The variants were then tasted and assessed for their similarity to the reference solutions.
Reference solutions: 8%, 9%, 10%, and 11% aqueous sucrose solutions were prepared.
Reference solutions: 250 ppm and 320 ppm aqueous rebaudioside A solutions were prepared.

human sense of taste [7] = test: Sweet taste intensity ranking by trained sensory discrimination panelists; type: in vivo
Excerpt: (§2) Panelists were asked to rank the samples in order of sweet taste intensity from low sweet to high sweet. Each panelist tasted each sample twice during the study such that each sample was judged a total of 30 times.
as §2
Panelists were asked to rank the samples in order of sweet taste intensity from low sweet to high sweet. Each panelist was presented a replicate set to render a total of 32 judgment data points.

human sense of taste [8] = test: Taste of QUAKER Instant Oatmeal containing phloroglucinol; type: in vivo
Description: Sugar was added to unsweetened QUAKER Instant Oatmeal (IQO) Original flavor. A high sugar control comprising 8 g sugar per bag of IQO (29 g) was prepared. A low sugar control comprising 5 g sugar per bag of IQO (29 g) was also prepared. […] The high control, low control, and variant formulations were placed in individual beakers and combined with about 200 mL of hot water. The resulting mixtures were stirred and then tasted. Taste tests were conducted while the mixtures were still warm and after the mixtures had cooled to room temperature.
The high and low controls described in Example 14 were again prepared. […] The high control, low control, and variant formulations were placed in individual beakers and combined with about 200 mL of hot water. The resulting mixtures were stirred and then tasted. Tasting was performed while the IQO was warm and after the IQO cooled to room temperature.

human sense of taste [9] = test: Taste of sugar solutions with phloroglucinol and salt against sugar controls; type: in vivo; conditions: for phloroglucinol concentration required to achieve the sweetness of an 11% sugar solution: 8% sugar
Description: as §1
Half remained as a low control. Salt (300 ppm) was added to the other half (the “variant”). An 11% sugar solution was prepared as a high control.

[10] = Example 13: 800 ppm phloroglucinol in SIERRA MIST
[11] = Example 17: 800 ppm phloroglucinol, 400 ppm salt, 8% sugar in water
[12] = Example 8: 250 ppm phloroglucinol in 250 ppm aqueous rebaudioside A
[13] = Example 10, second taster: 250 ppm rebaudioside A with 800 ppm phloroglucinol
[14] = Example 25: 400 ppm phloroglucinol in 5% sucrose
[15] = Example 26: 400 ppm phloroglucinol and 200 ppm sodium chloride in 5% sucrose
[16] = Example 27: 800 ppm phloroglucinol in 8.475% sucrose

## Oc1cc(O)cc(O)c1 [phloroglucinol]
Human sense of taste [1]; 300 ppm in water
  Taste: No taste
Human sense of taste [1]; 300 ppm to 800 ppm in water
  sweet taste of phloroglucinol by itself: No sweet taste was observed; also recorded: does not have any taste
Human sense of taste [1]; 400 ppm in water
  Taste: No taste
Human sense of taste [1]; 400 ppm phloroglucinol, 100 ppm salt in water
  Taste: No taste
Human sense of taste [1]; 500 ppm in water
  Taste: No taste
Human sense of taste [1]; 500 ppm phloroglucinol, 100 ppm salt in water
  Taste: No taste
Human sense of taste [1]; 600 ppm in water
  Taste: No taste
Human sense of taste [1]; 600 ppm phloroglucinol, 100 ppm salt in water
  Taste: No taste
Human sense of taste [1]; 600 ppm phloroglucinol, 400 ppm salt in water
  Taste, estimated sugar equivalent: ~1% sugar
Human sense of taste [1]; 800 ppm in water
  Taste: No taste
Human sense of taste [1]; Example 15: with sodium chloride
  taste of phloroglucinol in the presence of salt: slightly sweet
Human sense of taste [2]
  combination effect with rebaudioside C: synergistic
[3]
  stability in solution: stable and does not precipitate out of solution at the concentrations described herein, or break down at higher temperatures or when exposed to sunlight
Human sense of taste [4]; Example 12: 1/3 less HFCS (8 Brix without phloroglucinol), 800 ppm phloroglucinol
  sweetness of variant cola beverage compared with control cola (11.3 Brix): equal
Human sense of taste [4]; Example 12: 1/3 less HFCS, 800 ppm phloroglucinol
  mouthfeel and flavor of variant cola beverage: good mouthfeel; also recorded: more sour but with less caramel sweet flavor
Human sense of taste [4]; Example 12 cola, stored at 90° F. for 18 days
  sweetness after storage: sweetness remained about the same
Human sense of taste [4]; [10]
  body and sourness: good body; also recorded: Sourness was about the same
  sweetness compared with untreated control: much sweeter than the control
Human sense of taste [4]; Example 19: 35% less HFCS (7.5 Brix), 400 ppm phloroglucinol and 1% D-psicose
  sweetness of variant cola beverage compared with control cola (11.3 Brix): equal
Human sense of taste [4]; Example 19: 400 ppm phloroglucinol and 1% D-psicose
  mouthfeel of variant cola beverage: very good mouthfeel
Human sense of taste [5]; 600 ppm phloroglucinol, 400 ppm salt
  Taste: body compared with 8% sugar control: more body
Human sense of taste [5]; 800 ppm phloroglucinol, 400 ppm salt
  Taste: body compared with 8% sugar control: more body
Human sense of taste [5]; Example 17: 600 ppm phloroglucinol, 600 ppm salt, 8% sugar in water
  Taste: sweet taste as sugar equivalent: ≥ 11 % sugar
Human sense of taste [5]; [11]
  Taste: body: high body
  Taste: sweet taste as sugar equivalent: 12 % sugar
Human sense of taste [5]; Example 17: 800 ppm phloroglucinol, no salt, 8% sugar in water
  Taste: sweet taste as sugar equivalent: 11 % sugar
Human sense of taste [5]; Example 17: 800 ppm phloroglucinol, no salt, 8% sugar in water, listed as Phloroglucinol
  Taste: sweet taste as sugar equivalent: ~11% sugar
Human sense of taste [6]; Example 1: 400 ppm phloroglucinol in 5% aqueous sucrose, references 5%, 7%, 9% sucrose
  sweetness, as equivalent aqueous sucrose reference solution: > 5% and ~7%
Human sense of taste [6]; Example 2: 800 ppm phloroglucinol in 5% aqueous sucrose
  temporal profile and quality of sweet taste: sweetness of the variant took a split of a second to show but the backend seemed even sweeter; also recorded: the sweet taste was clean without lingering
Human sense of taste [6]; Example 3: 800 ppm phloroglucinol in 5% aqueous sucrose without buffer, references 5-9% sucrose in pH 3.0 citrate buffer
  sweetness, as equivalent sucrose reference solution: ~8%
Human sense of taste [6]; Example 3: 800 ppm phloroglucinol in 5% aqueous sucrose, references in pH 3.0 citrate buffer
  temporal profile and quality of sweet taste: sweetness of the variant took a split of a second to show but the backend seemed even sweeter; also recorded: the sweet taste was clean without lingering
Human sense of taste [6]; Example 4: 800 ppm phloroglucinol in 2.5% aqueous fructose
  sweetness, as equivalent aqueous fructose reference solution: > 3.5% and ~4%
Human sense of taste [6]; Example 4: 800 ppm phloroglucinol in 2.5% aqueous fructose vs 4% fructose
  temporal profile of sweet taste: the variant solution was sweeter in backend
Human sense of taste [6]; Example 5: 800 ppm phloroglucinol in 5% aqueous glucose
  sweetness, as equivalent aqueous glucose reference solution: ~8% and < 9%
Human sense of taste [6]; Example 6: 40, 100, 200, 400, 600, 800 ppm phloroglucinol in 5% aqueous sucrose
  dose response of apparent sweetness (FIG. 1): approximately linear correlation between phloroglucinol concentration and apparent sweetness
Human sense of taste [6]; [12]
  sweetness, as equivalent aqueous rebaudioside A reference solution: ~320 ppm
  taste quality (backend, bitter aftertaste of rebaudioside A): a sweeter backend; also recorded: bitter aftertaste of rebaudioside A was not changed
Human sense of taste [6]; [13]
  bitterness of the variant solution: did not change
  sweetness, as equivalent rebaudioside A reference solution: ~320 ppm
Human sense of taste [6]; Examples 2, 10: 800 ppm phloroglucinol in 5% aqueous sucrose, references 5%, 7%, 9% sucrose
  sweetness, as equivalent aqueous sucrose reference solution: > 7% and < 9% and ~8%
Human sense of taste [6]; Examples 7, 10, 11: 800 ppm phloroglucinol in 8% aqueous sucrose, first, second, third taster
  sweetness, as equivalent aqueous sucrose reference solution: > 10% and ~11% and > 11%
Human sense of taste [7]; [14]
  sweet taste increased to, as sucrose equivalent: approximately 6.4%
  sweetness enhancement: approximately 28%
Human sense of taste [7]; [15]
  sweet taste increased to, as sucrose equivalent: approximately 6.6%
  sweetness enhancement: approximately 32%
Human sense of taste [7]; [16]
  statistical comparison with 11.3% sucrose solution: statistically indistinguishable from the 11.3% solution
  sweet taste increased to, as sucrose equivalent: approximately 11.76%
  sweetness enhancement: about 39%
Human sense of taste [8]; Example 14: 5 g sugar and 137 mg phloroglucinol per bag of IQO (29 g), warm and room temperature
  sweetness compared with low control (5 g sugar) and high control (8 g sugar): sweeter than the low control but not quite as sweet as the high control
Human sense of taste [8]; Example 21: 5 g sugar, 100 mg phloroglucinol, 1 g D-psicose per bag of IQO (29 g)
  sweetness compared with high control (8 g sugar): sweetness similar to the high control
Human sense of taste [9]; in the presence of 300 ppm salt
  phloroglucinol concentration required to achieve the sweetness of an 11% sugar solution: 500 ppm
Human sense of taste [9]; no salt
  phloroglucinol concentration required to achieve the sweetness of an 11% sugar solution: 800 ppm
Human sense of taste [9]; Example 15 variant 2: 8% sugar, 500 ppm phloroglucinol, 300 ppm salt
  sweetness, as equivalent sugar solution: 11 % sugar
Human sense of taste [9]; Example 15 variant: 8% sugar, 300 ppm phloroglucinol, 300 ppm salt
  sweetness compared with low control (no salt) and 11% sugar high control: much sweeter than the low control, but not quite as sweet as the high control
